Like-named read-outs stand apart in the source and are kept apart here.
Assays:
phosphorylated PDK1 = phosphorylated PDK1 (Homo sapiens (Human), UniProt O15530); test: PDK1 kinase assay (coupled PDK1/AKT/FAM-crosstide, IMAP); format: biochemical; conditions: 0.5 nM phosphorylated PDK1, 24 μM ATP; read-out: Inhibition of phospo-PDK1 in vitro IC50
phospho-akt (Thr308) = phospho-akt (Thr308) MSD ELISA in PC-3 cells; format: cell-based; conditions: Homo sapiens, PC-3 cells; for EC50: PC-3, 2 h, 2 hours, no serum; for inhibition at 1 µM / inhibition at 10 µM: read-out: Percent Inhibition of phospho-Akt (308) By MSD ELISA
How it was run: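 Read-out is MSD electrochemiluminescence after lysate capture overnight at 4 degrees and 1 hr RT detection-antibody step. Before lysis, overnight-plated PC-3 cells received three-fold serial dilutions of inhibitor in serum-free medium, with DMSO-only high controls.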

Phospho-T308 Akt = Phospho-T308 Akt detection using immunoblot (western blot) in PC-3 cells; format: cell-based; conditions: for Reduction of Cellular Levels of Akt p308 By Western: 2 hour incubation, concentration not given in Table 2; for inhibition at 5 µM / inhibition at 2 µM: Homo sapiens, read-out: Percent Inhibition of phospho-Akt (308) By Western
Protocol: A Phospho-T308 Akt detection using immunoblot (western blot) analysis was performed as described below.
PC-3 prostate cells were plated in a 6 well plate in F12K media (Invitrogen, Carlsbad, Calif.) plus 10% FBS (Invitrogen) and placed in incubator overnight. The stock of compound A was a 50 mM solution in DMSO. 1000× dilutions of the compound were made in DMSO. The 1000× dilutions include, 35 mM, 25 mM, 15 mM, 10 mM, 7 mM, 5 mM, and 1 mM. 1 μl of the 1000× dilutions was added to 1 ml F12K media without serum for final concentrations of […]. 1 μl of DMSO was added to 1 ml media with no serum for a control. The 1 ml DMSO or compound plus media was then added to the cells. Following a 2 hour incubation at 37° C., cells were harvested and washed in PBS and subjected to centrifugation at 3,300 rpm for 5 minutes. Cells were lysed in 100 μl of Bio Rad Bioplex buffer containing protease inhibitors (BioRad, Hercules, Calif.) for 30 minutes on ice followed by centrifugation at 13,000 rpm for 5 minutes. The protein content of the supernatant was assayed using DC Protein Assay (BioRad). 25 μl of protein was added to 4× sample buffer (Invitrogen) and sample reducer (Invitrogen) and run on a 4-12% NuPage gel (Invitrogen). Proteins were then transferred to nitrocellulose (Invitrogen). The membrane was blocked in Tris-buffered saline (Sigma, St. Louis, Mo.) plus 0.1% Tween (Sigma) (T-TBS) plus 5% blotting grade milk (BioRad) for 60 minutes. Membranes were then incubated in T-TBS plus 5% BSA (Sigma) plus 1:1000 of anti-phospho akt (Thr 308) (Cell Signaling Technology, Beverly, Mass.) overnight at 4° C. Membranes were washed in T-TBS then incubated in 1:2000 of anti-rabbit-HRP (Cell Signaling) in TTBS plus 5% milk. Membranes were washed again and proteins were visualized with Super Signal West Pico (Pierce, Rockford, Ill.) and using Kodak BioMax MR film (Kodak, Rochester, N.Y.).
Phospho-akt 308 protein bands on the film were quantified using densitometry. An Alpha Imager (Alpha Innotech Corp, San Leandro, Calif.) using AlphaEase FC software version 4.1.0 (Alpha Innotech Corp.) was used to quantitate protein bands. Briefly, a rectangle of equal size was placed around each protein band as well as a background spot on the film. The densitometry values (IDV=Integrated Density Value) obtained for the background spot was then subtracted from the values obtained for the protein bands. These values were used to obtain an EC50 value using non-linear regression analysis in GraphPad Prism Version 4.00 (Graph Pad Prism, San Diego, Calif.). Percent decrease in expression of phosphoh-akt 308 were also measured specifically at 2 μM and 5 μM levels of inhibitor.

dephosphorylated PDK1 = dephosphorylated PDK1 (Homo sapiens (Human), UniProt O15530); test: PDK1 kinase assay (coupled PDK1/AKT/FAM-crosstide, IMAP); format: biochemical; conditions: 25 nM un-phosphorylated PDK1, 24 μM ATP; read-out: Inhibition of dephospo-PDK1 in vitro IC50
Sequence of dephosphorylated PDK1 (O15530 51-360): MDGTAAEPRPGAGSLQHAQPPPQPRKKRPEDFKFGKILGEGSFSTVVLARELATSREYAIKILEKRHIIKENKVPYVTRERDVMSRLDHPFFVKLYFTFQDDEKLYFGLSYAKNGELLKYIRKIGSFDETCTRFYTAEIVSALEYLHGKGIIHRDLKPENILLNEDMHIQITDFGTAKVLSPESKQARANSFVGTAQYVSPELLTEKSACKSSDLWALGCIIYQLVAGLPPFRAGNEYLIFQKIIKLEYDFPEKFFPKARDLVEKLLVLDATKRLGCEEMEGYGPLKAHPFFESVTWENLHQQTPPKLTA
Protocol: A PDK1 kinase assay was performed as follows. PDK1 (amino acids 51-360) and AKT2 (amino acids 140-467 fused to PIFtide, amino acids […]) were expressed as N-terminally tagged GST fusion proteins in insect cells and purified to greater than 90% homogeneity. PDK1 protein was divided into two fractions, one of which was subsequently dephosphorylated. To generate dephosphorylated PDK1, the PDK1 was reacted with GST-tagged lambda-phosphatase in vitro. GST was subsequently cleaved proteolytically for both phosphorylated and dephosphorylated PDK1. Protein preparations were run on glutathione Sepharose columns to remove GST and GST-tagged lambda-phosphatase, if present. Phosphorylated PDK1 and dephosphorylated PDK1 were verified by mass-spectrometry. Enzyme activity was determined in a coupled PDK1/AKT/FAM-crosstide assay using either phosphorylated or unphosphorylated PDK1 and phosphorylation of FAM-crosstide was determined by standard IMAP protocol (Molecular Devices). For inhibition studies, compounds were titrated 3-fold in DMSO and diluted 40-fold into assay buffer (10 mM Tris HCl pH7.2; 10 mM MgCl2; 0.01% Triton X-100; 1 mM DTT) containing PDK1, AKT2, and FAM-crosstide. (final concentrations: 25 nM un-phosphorylated PDK1 or 0.5 nM phosphorylated PDK1, 30 nM unphosphorylated AKT2, and 100 nM crosstide substrate). The kinase reaction was initiated by adding ATP to a final concentration of 24 μM for both forms of PDK1 and incubated at 25° C. for 30 min. To detect assay product, the kinase reaction was combined with Progressive Binding Solution (1:600 Progressive Binding Reagent, 50% Buffer A, 50% Buffer B, Molecular Devices) in a 1:3 ratio. The mixture was incubated for 2 hours at 25° C. and the plate was scanned on an Analyst AD with excitation at 485 nm and emission at 530 nm. The fluorescence polarization value “P” is defined by the equation below. The value “mP” is generated by multiplying the P value for each reaction well by a factor of 1000. The value “ΔmP” for each well is the mP value for that well minus the mP value for the average negative control. P=(Fpar−Fperp)/(Fpar+Fperp) Eq.:
Where “par” is fluorescence intensity parallel to the excitation plane; and “perp” is fluorescence intensity perpendicular to the excitation plane. ΔmP values were plotted as a function of compound concentration and the data were analyzed with a 4-parameter fit using GraphPad Prism software.

[1] = read-out: Inhibition of P308 Akt in cells using MSD EC50
[2] = read-out: Reduction of Cellular Levels of Akt p308 By MSD ELISA (EC50 μM)

Sequence of phosphorylated PDK1 (O15530 51-360): as above

| Structure (SMILES) | IC50 (phosphorylated PDK1) [µM] | EC50 (phospho-akt (Thr308); [1]) [µM] | inhibition at 1 µM (phospho-akt (Thr308)) [%] | inhibition at 10 µM (phospho-akt (Thr308)) [%] | Reduction of Cellular Levels of Akt p308 By Western (Phospho-T308 Akt) | inhibition at 5 µM (Phospho-T308 Akt) [%] | EC50 (phospho-akt (Thr308); [2]) [µM] | inhibition at 2 µM (Phospho-T308 Akt) [%] | IC50 (dephosphorylated PDK1) [µM] |
| --- | --- | --- | --- | --- | --- | --- | --- | --- | --- |
| O=C(NCc1cccc(-c2c[nH]c3ncc(F)cc23)c1)c1cccn(Cc2ccc(F)c(F)c2)c1=O [Cpd 10] | < 0.5 | 1 to 5 | 25 to 75 | > 75 | bbb (inhibition of more than 75%) | > 75 |  |  |  |
| O=C(NCc1ccc(-c2c[nH]c3ncc(F)cc23)s1)c1cccn(Cc2ccc(F)c(F)c2)c1=O [Cpd 11] | < 0.5 | < 1 |  |  | bbb (inhibition of more than 75%) | > 75 | < 1 |  |  |
| O=C(NCc1ccc(-c2c[nH]c3ncc(CO)cc23)s1)c1cccn(Cc2ccc(F)c(F)c2)c1=O [Cpd 12] | < 0.5 | < 1 | 25 to 75 | > 75 | bb (inhibition of from 25% to 75%) |  |  | 25 to 75 |  |
| O=C(NCc1cc(-c2c[nH]c3ncccc23)cs1)c1cccn(Cc2ccc(F)c(F)c2)c1=O [Cpd 17] | < 0.5 | 1 to 5 | 25 to 75 | > 75 | bbb (inhibition of more than 75%) |  |  | > 75 |  |
| CC(=O)NC[C@@H](NC(=O)c1cccn(Cc2ccc(F)c(F)c2)c1=O)c1nc(-c2c[nH]c3ncccc23)cs1 [Cpd 136] |  |  |  |  |  | 25 to 75 |  |  |  |
| CC(C)n1c(=O)[nH]c2cc(OCCNC(=O)c3cccn(Cc4ccc(F)c(F)c4)c3=O)ccc21 [Cpd 280] | < 0.5 | > 5 | 25 to 75 | 25 to 75 |  |  |  |  | < 0.5 |
| O=C(NCCOc1ccc2c(c1)[nH]c(=O)n2C1CC1)c1cccn(Cc2ccc(F)c(F)c2)c1=O [Cpd 282] | < 0.5 | > 5 | < 25 | 25 to 75 |  |  |  |  | < 0.5 |
| O=C(C[C@@H](NC(=O)c1cccn(Cc2ccc(F)c(F)c2)c1=O)c1nnc(-c2c[nH]c3ncccc23)o1)NCCO [Cpd 297] | < 0.5 |  | < 25 | < 25 |  |  |  |  | < 0.5 |
| C[C@@H](c1ccc(F)cc1)n1cccc(C(=O)NCc2noc(-c3c[nH]c4ncccc34)n2)c1=O [Cpd 311] | < 0.5 |  | < 25 | > 75 |  |  |  |  | < 0.5 |
| O=C(N[C@H](CCCO)c1nc(-c2c[nH]c3ncccc23)c[nH]1)c1cccn(Cc2ccc(F)c(F)c2)c1=O [Cpd 313] | < 0.5 |  | 25 to 75 | 25 to 75 |  |  |  |  | < 0.5 |
| O=C(NCc1noc(-c2c[nH]c3ncccc23)n1)c1cc(Cl)cn(Cc2ccc(F)c(F)c2)c1=O [Cpd 314] | < 0.5 | > 5 | 25 to 75 | > 75 |  |  |  |  | < 0.5 |
| O=C(NCc1noc(-c2c[nH]c3ncccc23)n1)c1cc(Cl)cn(Cc2ccc(Cl)c(F)c2)c1=O [Cpd 316] | < 0.5 |  | 25 to 75 | 25 to 75 |  |  |  |  | < 0.5 |
| Cc1ccc(Cn2cccc(C(=O)NCc3noc(-c4c[nH]c5ncccc45)n3)c2=O)cc1Cl [Cpd 317] | < 0.5 | > 5 | 25 to 75 | > 75 |  |  |  |  | < 0.5 |
| NC(=O)CC[C@@H](NC(=O)c1cccn(Cc2ccc(F)c(F)c2)c1=O)c1nc(-c2c[nH]c3ncccc23)cs1 [Cpd 318] | < 0.5 |  | < 25 | 25 to 75 |  |  |  |  | < 0.5 |
| O=C(NCc1noc(-c2c[nH]c3ncccc23)n1)c1cc(Cl)cn(Cc2ccc(F)cc2)c1=O [Cpd 319] | < 0.5 | > 5 | < 25 | 25 to 75 |  |  |  |  | < 0.5 |
| CC(C)[C@@H](COc1ccc2[nH]c(=O)[nH]c2c1)NC(=O)c1cccn(Cc2ccc(F)c(F)c2)c1=O [Cpd 320] | 0.5 to 10 |  | < 25 | 25 to 75 |  |  |  |  | < 0.5 |
| O=C(N[C@@H](COc1ccc2[nH]c(=O)[nH]c2c1)Cc1ccccc1)c1cccn(Cc2ccc(F)c(F)c2)c1=O [Cpd 321] | < 0.5 | > 5 | < 25 | > 75 |  |  |  |  | < 0.5 |
| CCC[C@H](COc1ccc2[nH]c(=O)[nH]c2c1)NC(=O)c1cccn(Cc2ccc(F)c(F)c2)c1=O [Cpd 322] | < 0.5 | 1 to 5 |  |  |  |  | 1 to 5 |  | < 0.5 |
| O=C(NCc1cnc(-c2c[nH]c3ncccc23)s1)c1cccn(Cc2ccc(Cl)c(Cl)c2)c1=O [Cpd 323] | < 0.5 | 1 to 5 |  |  |  |  | 1 to 5 |  | < 0.5 |
| CNc1nc(-c2ccc(CNC(=O)c3cccn(Cc4ccc(F)c(F)c4)c3=O)s2)cn2ccnc12 [Cpd 325] | 0.5 to 10 | > 5 |  |  |  |  |  |  | < 0.5 |
| CNc1nc(-c2cccc(CNC(=O)c3cccn(Cc4ccc(F)c(F)c4)c3=O)c2)cn2ccnc12 [Cpd 326] | 0.5 to 10 | > 5 |  |  |  |  |  |  | 0.5 to 10 |
| O=C(NCc1cccc(-c2ccc3cn[nH]c3c2)c1)c1cccn(Cc2ccc(F)c(F)c2)c1=O [Cpd 328] | < 0.5 | > 5 |  |  |  |  |  |  | < 0.5 |
| O=C(NCc1cccc(-c2ccc3nccn3c2)c1)c1cccn(Cc2ccc(F)c(F)c2)c1=O [Cpd 336] |  |  | 25 to 75 | > 75 |  | > 75 |  |  |  |

— US9873693B2 (Sunesis Pharmaceuticals, Inc., priority 2006, dated 2018)
